Experimental data reported in patent US20210387964A1, “HETEROARYLAMINOQUINOLINES AND ANALOGUES” (Bayer Aktiengesellschaft, priority 2018, published 2021).

assay: log P by HPLC on reversed-phase column (C 18), EEC Directive 79/831 Annex V.A8; format: physicochemical; settings: not given
Method: In table 1, the log P values were determined in accordance with EEC Directive 79/831 Annex V.A8 by HPLC (High Performance Liquid Chromatography) on a reversed-phase column (C 18), using the method described below: […] If more than one Log P value is available within the same method, all the values are given and separated by “;”.

Row | Compound | logP | chromatographic logP
1 | Cc1c(Nc2ccsc2-c2ccnn2C)cnc2ccccc12 [I.03] | 1.39 | –
2 | Cc1nc2ccccc2nc1Nc1ccsc1-c1ccnn1C [I.04] | 2.47 | –
3 | Cn1nccc1-c1sccc1Nc1cnc2c(F)cccc2c1 [I.05] | 2.49 | –
4 | CCn1nccc1-c1sccc1Nc1cnc2ccccc2c1C [I.06] | 1.60 | –
5 | CCn1nccc1-c1sccc1Nc1nc2ccccc2nc1C [I.07] | 2.80 | –
6 | Cn1nccc1-c1ncccc1Nc1cnc2ccccc2c1Cl [I.08] | 2.02 | –
7 | Cn1nccc1-c1ncccc1Nc1cnc2c(F)c(F)ccc2n1 [I.10] | 2.13 | –
8 | Cn1nccc1-c1sccc1Nc1cnc2ccccc2c1Cl [I.12] | 2.66 | –
9 | Cc1nc2c(F)c(F)ccc2cc1Cc1cccnc1-c1ccnn1C [I.15] | 2.17 | –
10 | Cc1nc2c(F)c(F)ccc2cc1Nc1cccnc1-c1ccnn1C [I.16] | 2.04 | –
11 | Cc1nc2c(F)c(F)ccc2cc1Cc1cccnc1-c1ccsc1 [I.18] | 2.05 | –
12 | Cc1nc2c(F)c(F)ccc2nc1Nc1cncnc1-c1ccnn1C [I.19] | 2.00 | –
13 | CCn1nccc1-c1sccc1Nc1cnc2ccccc2c1Cl [I.20] | 2.98 | –
14 | Cc1nc2c(F)c(F)ccc2cc1Nc1ccsc1-c1ccnn1C [I.21] | 2.74 | –
15 | CCn1nccc1-c1sccc1Nc1cnc2c(F)c(F)ccc2c1 [I.22] | 2.92 | –
16 | Cc1nc2c(F)c(F)ccc2nc1Nc1ccsc1-c1ccnn1C [I.24] | 2.90 | –
17 | CCn1nccc1-c1sccc1Nc1cc2ccc(F)c(F)c2nc1C [I.25] | 3.11 | –
18 | CCn1nccc1-c1sccc1Nc1nc2ccc(F)c(F)c2nc1C [I.26] | 3.27 | –
19 | CCn1nccc1-c1c(F)cncc1Nc1cc2ccc(F)c(F)c2nc1C [I.28] | 2.60 | –
20 | Cc1nc2c(F)c(F)ccc2cc1Nc1ccnc(Cl)c1-c1ccnn1C [I.29, N-[2-chloro-3-(1-methyl-1H-pyrazol-5-yl)pyridin-4-yl]-7,8-difluoro-2-methylquinolin-3-amine] | – | 2.27

Row | Compound | logP | chromatographic logP
21 | CCCn1nccc1-c1c(F)cncc1Nc1cc2ccc(F)c(F)c2nc1C [I.31] | 2.86 | –
22 | CCn1nccc1-c1c(Cl)cncc1Nc1nc2ccc(F)c(F)c2nc1C [I.32] | 3.06 | –
23 | CCCn1nccc1-c1c(Nc2cc3ccc(F)c(F)c3nc2C)ccnc1Cl [I.34] | 2.82 | –
24 | Cn1nccc1-c1cscc1Cc1cnc2c(F)cccc2c1 [I.36] | 2.49 | –
25 | Cc1nc2c(F)c(F)ccc2cc1Cc1cscc1-c1ccnn1C [I.38, 7,8-difluoro-2-methyl-3-{[4-(1-methyl-1H-pyrazol-5-yl)-3-thienyl]methyl}quinoline] | – | 3.01
26 | Cc1nc2c(F)c(F)ccc2cc1Cc1cscc1-c1ccsc1 [I.39] | 4.47 | –
27 | CCn1nccc1-c1c(F)cncc1Nc1cc2ccc(F)c(OC)c2nc1C [I.41] | 2.22 | –
28 | CCn1nccc1-c1c(Nc2cc3ccc(F)c(F)c3nc2C)cncc1OC [I.42] | 2.06 | –
29 | CCOCn1nccc1-c1ccsc1Cc1cnc2c(F)cccc2c1 [I.47] | 3.10 | –
30 | Cc1nc2c(F)c(F)ccc2cc1Cc1cccnc1Br [IIa.01] | 2.92 | –
31 | CS(=O)(=O)N(c1cnc2c(F)cccc2c1)c1cccnc1Cl [IIa.02] | 2.07 | –
32 | Cc1nc2c(F)c(F)ccc2nc1Nc1cnccc1Cl [IIc.01] | 2.41 | –
33 | Fc1cccc2cc(Cc3cscc3Br)cnc12 [IIf.01] | 3.36 | –
34 | Cc1nc2c(F)c(F)ccc2cc1Cc1cscc1Br [IIf.02, 3-[(4-bromo-3-thienyl)methyl]-7,8-difluoro-2-methylquinoline] | – | 4
35 | Fc1cccc2cc(Cc3sccc3Br)cnc12 [IIg.01] | 3.50 | –
36 | CCn1nccc1-c1ccncc1Cl [IXc.01, 3-chloro-4-(1-ethyl-1H-pyrazol-5-yl)pyridine] | – | 1.73
37 | Cn1nccc1-c1sccc1Br [IXe.01, 5-(3-bromo-2-thienyl)-1-methyl-1H-pyrazole] | – | 2.29
38 | CCn1nccc1-c1c(N)cncc1OC [XIc.02, 4-(1-ethyl-1H-pyrazol-5-yl)-5-methoxypyridin-3-amine] | – | 0.08
39 | CCCn1nccc1-c1c(N)cncc1OC [XIc.04, 5-methoxy-4-(1-propyl-1H-pyrazol-5-yl)pyridin-3-amine] | – | 0.45

Results, then the compound that gave them:

Row | logP | chromatographic logP | Compound
40 | 1.88 | – | Cc1nc2ccccc2nc1Nc1cccnc1-c1ccnn1C [I.01]
41 | 1.72 | – | Cn1nccc1-c1ncccc1Nc1cnc2c(F)cccc2c1 [I.02]
42 | 1.93 | – | Cn1nccc1-c1ncccc1Nc1cnc2c(F)c(F)ccc2c1 [I.09]
43 | 2.75 | – | CCn1nccc1-c1sccc1Nc1cnc2c(F)cccc2c1 [I.11]
44 | – | 2.71 | Cn1nccc1-c1sccc1Nc1cnc2c(F)c(F)ccc2c1 [I.13, 7,8-difluoro-N-[2-(1-methyl-1H-pyrazol-5-yl)-3-thienyl]quinolin-3-amine]
45 | 2.94 | – | Cn1nccc1-c1sccc1Nc1cnc2c(F)c(F)ccc2n1 [I.14]
46 | 2.23 | – | Cc1nc2c(F)c(F)ccc2nc1Nc1cccnc1-c1ccnn1C [I.17]
47 | 3.29 | – | CCn1nccc1-c1sccc1Nc1cnc2c(F)c(F)ccc2n1 [I.23]
48 | 2.33 | – | CCCn1nccc1-c1cnccc1Nc1nc2ccc(F)c(F)c2nc1C [I.27]
49 | 2.28 | – | CCn1nccc1-c1c(Nc2nc3ccc(F)c(F)c3nc2C)cncc1OC [I.30]
50 | 2.64 | – | CCCn1nccc1-c1c(Nc2nc3ccc(F)c(F)c3nc2C)cncc1OC [I.33]
51 | – | 3.44 | CCCn1nccc1-c1c(Cl)cncc1Nc1nc2ccc(F)c(F)c2nc1C [I.35, N-[5-chloro-4-(1-propyl-1H-pyrazol-5-yl)pyridin-3-yl]-5,6-difluoro-3-methylquinoxalin-2-amine]
52 | 3.77 | – | Fc1cccc2cc(Cc3cscc3-c3ccsc3)cnc12 [I.37]
53 | 2.11 | – | CCCn1nccc1-c1c(C)cncc1Nc1cc2ccc(F)c(F)c2nc1C [I.40]
54 | 2.86 | – | CCn1nccc1-c1c(Cl)cncc1Nc1cc2ccc(F)c(F)c2nc1C [I.43]
55 | 2.51 | – | CCCn1nccc1-c1c(F)cncc1Nc1cc2ccc(F)c(OC)c2nc1C [I.44]
56 | 2.30 | – | CCCn1nccc1-c1c(Nc2cc3ccc(F)c(F)c3nc2C)cncc1OC [I.45]
57 | 3.20 | – | CCCn1nccc1-c1c(Cl)cncc1Nc1cc2ccc(F)c(F)c2nc1C [I.46]
58 | 3.64 | – | CCOCn1nccc1-c1ccsc1Cc1cc2ccc(F)c(F)c2nc1C [I.48]
59 | 2.94 | – | Cc1nc2c(F)c(F)ccc2cc1Nc1cncc(F)c1I [IIc.02]
60 | 4.19 | – | Cc1nc2c(F)c(F)ccc2cc1Cc1sccc1Br [IIg.02]
61 | – | 2.72 | CCn1nccc1-c1sccc1Br [IXe.02, 5-(3-bromo-2-thienyl)-1-ethyl-1H-pyrazole]
62 | – | 0.11 | CCCn1nccc1-c1ccncc1N [XIc.01, 4-(1-propyl-1H-pyrazol-5-yl)pyridin-3-amine]
63 | – | 1.3 | CCn1nccc1-c1c(N)cncc1Cl [XIc.03, 5-chloro-4-(1-ethyl-1H-pyrazol-5-yl)pyridin-3-amine]
64 | – | 1.64 | CCCn1nccc1-c1c(N)cncc1Cl [XIc.05, 5-chloro-4-(1-propyl-1H-pyrazol-5-yl)pyridin-3-amine]

same assay, conditions: HPLC, reversed-phase C 18, 40° C., 0.1% aqueous formic acid and acetonitrile, gradient 10% to 95% acetonitrile

Row | Compound | logP
65 | 3-bromo-2-(1-methyl-1H-pyrazol-5-yl)pyridine [IXa.01] | 1.53
